Data taken from patent US20210300894A1, “CRYSTALLINE FORM OF N-[1-(5-CYANO-PYRIDIN-2-YLMETHYL)-1 H-PYRAZOL-3-YL]-2-[4-(1-TRIFLUO-ROMETHYL-CYCLOPROPYL)-PHENYL]-ACETAMIDE” (IDORSIA PHARMACEUTICALS LTD, priority 2017, published 2021).

Assay: Gravimetric vapour sorption (GVS) analysis, moisture sorption at 25° C.
Type: physicochemical
Settings: stepping mode in steps of 5% RH, classification according to Ph. Eur.
Procedure: Gravimetric Vapour Sorption (GVS) Analysis
Measurements were performed on an IGASORP Model HAS-036-080 moisture sorption instrument (Hiden Isochema, Warrington, UK) operated in stepping mode at 25° C. The sample was allowed to equilibrate at the starting relative humidity (RH) before starting a pre-defined humidity program in steps of 5% ARH and with a maximal equilibration time of 24 hours per step. About 20 to 30 mg of each sample was used.

N#Cc1ccc(Cn2ccc(NC(=O)Cc3ccc(C4(C(F)(F)F)CC4)cc3)n2)nc1 [COMPOUND in crystalline form 1, N-[1-(5-cyano-pyridin-2-ylmethyl)-1H-pyrazol-3-yl]-2-[4-(1-trifluoromethyl-cyclopropyl)-phenyl]-acetamide]
Moisture sorption at 25° C. (GVS), hygroscopicity according to Ph. Eur.: not hygroscopic according to Ph. Eur
